Values after ≈ are worked out from the molar mass of the structure shown. Read-outs that look alike come from different tables or passages of the source.
Legend:
Experiment in all cases: Antimicrobial susceptibility testing (MIC), BD Phoenix Automated Microbiology System; as to interpretation of the result: key: R, resistant; I, intermediate; S, susceptible; R*: *As a rule, when ESBL is detected, an interpretation of susceptible or intermediate for penicillins, cephalosporins and aztreonam is reported as resistant
Assay type in all cases: cell-based
Acinetobacter baumannii = settings: for MIC: Acinetobacter baumannii
Escherichia coli = settings: for MIC: Escherichia coli
Klebsiella ssp. = settings: for MIC: Klebsiella
Pseudomonas aeruginosa = settings: for MIC: Pseudomonas aeruginosa
[1] = Acinetobacter baumannii isolate 1
[2] = Acinetobacter baumannii isolate 2
[3] = Acinetobacter baumannii isolate 3
[4] = Acinetobacter baumannii isolate 4
[5] = Acinetobacter baumannii isolate 5
[6] = Pseudomonas aeruginosa isolate 1
[7] = Pseudomonas aeruginosa isolate 2
[8] = Pseudomonas aeruginosa isolate 3
[9] = Pseudomonas aeruginosa isolate 4
[10] = Pseudomonas aeruginosa isolate 5
[11] = read-out: minimal inhibiting concentration, Acinetobacter baumannii isolate 1
[12] = read-out: minimal inhibiting concentration, Acinetobacter baumannii isolate 2
[13] = read-out: minimal inhibiting concentration, Acinetobacter baumannii isolate 3
[14] = read-out: minimal inhibiting concentration, Acinetobacter baumannii isolate 4
[15] = read-out: minimal inhibiting concentration, Acinetobacter baumannii isolate 5
[16] = read-out: minimal inhibiting concentration

CC(C)(O/N=C(\C(=O)N[C@@H]1C(=O)N2C(C(=O)[O-])=C(C[n+]3ccccc3)CS[C@H]12)c1csc(N)n1)C(=O)O [Ceft., Ceftazidime]
interpretation of the result (Acinetobacter baumannii; [1]): R | interpretation of the result (Acinetobacter baumannii; [2]): R | interpretation of the result (Acinetobacter baumannii; [3]): S | interpretation of the result (Acinetobacter baumannii; [4]): R | interpretation of the result (Acinetobacter baumannii; [5]): R | MIC (Acinetobacter baumannii; Acinetobacter baumannii isolate 1, read-out: minimal inhibiting concentration): > 16 µg/mL | MIC (Acinetobacter baumannii; Acinetobacter baumannii isolate 2, read-out: minimal inhibiting concentration): > 16 µg/mL | MIC (Acinetobacter baumannii; Acinetobacter baumannii isolate 3, read-out: minimal inhibiting concentration): 8 µg/mL (≈ 14.6 µM) | MIC (Acinetobacter baumannii; Acinetobacter baumannii isolate 4, read-out: minimal inhibiting concentration): > 16 µg/mL | MIC (Acinetobacter baumannii; Acinetobacter baumannii isolate 5, read-out: minimal inhibiting concentration): > 16 µg/mL | interpretation of the result (Escherichia coli; Escherichia coli isolate 1): R | interpretation of the result (Escherichia coli; Escherichia coli isolate 2): R | interpretation of the result (Escherichia coli; Escherichia coli isolate 3): R | interpretation of the result (Escherichia coli; Escherichia coli isolate 4): R | MIC (Escherichia coli; Escherichia coli isolate 1, read-out: minimal inhibiting concentration): > 16 µg/mL | MIC (Escherichia coli; Escherichia coli isolate 2, read-out: minimal inhibiting concentration): > 16 µg/mL | MIC (Escherichia coli; Escherichia coli isolate 3, read-out: minimal inhibiting concentration): > 16 µg/mL | MIC (Escherichia coli; Escherichia coli isolate 4, read-out: minimal inhibiting concentration): > 16 µg/mL | MIC (Escherichia coli; Escherichia coli isolate 5, read-out: minimal inhibiting concentration): 4 µg/mL (≈ 7.32 µM) | interpretation of the result (Klebsiella ssp.; Klebsiella ssp. isolate 1): R | interpretation of the result (Klebsiella ssp.; Klebsiella ssp. isolate 5): R | MIC (Klebsiella ssp.; Klebsiella ssp. isolate 1, read-out: minimal inhibiting concentration): > 16 µg/mL | MIC (Klebsiella ssp.; Klebsiella ssp. isolate 2, read-out: minimal inhibiting concentration): > 2 µg/mL | MIC (Klebsiella ssp.; Klebsiella ssp. isolate 3, read-out: minimal inhibiting concentration): > 2 µg/mL | MIC (Klebsiella ssp.; Klebsiella ssp. isolate 4, read-out: minimal inhibiting concentration): > 2 µg/mL | MIC (Klebsiella ssp.; Klebsiella ssp. isolate 5, read-out: minimal inhibiting concentration): > 16 µg/mL | interpretation of the result (Pseudomonas aeruginosa; [6]): R | interpretation of the result (Pseudomonas aeruginosa; [7]): S | interpretation of the result (Pseudomonas aeruginosa; [8]): R | interpretation of the result (Pseudomonas aeruginosa; [9]): R | interpretation of the result (Pseudomonas aeruginosa; [10]): R | MIC (Pseudomonas aeruginosa; Pseudomonas aeruginosa isolate 1, read-out: minimal inhibiting concentration): > 16 µg/mL | MIC (Pseudomonas aeruginosa; Pseudomonas aeruginosa isolate 2, read-out: minimal inhibiting concentration): 8 µg/mL (≈ 14.6 µM) | MIC (Pseudomonas aeruginosa; Pseudomonas aeruginosa isolate 3, read-out: minimal inhibiting concentration): > 16 µg/mL | MIC (Pseudomonas aeruginosa; Pseudomonas aeruginosa isolate 4, read-out: minimal inhibiting concentration): > 16 µg/mL | MIC (Pseudomonas aeruginosa; Pseudomonas aeruginosa isolate 5, read-out: minimal inhibiting concentration): > 16 µg/mL

Gentamicin [Gent.]
interpretation of the result (Acinetobacter baumannii; [1]): R | minimal inhibiting concentration (Acinetobacter baumannii; [1]): > 8 µg/mL | interpretation of the result (Acinetobacter baumannii; [2]): R | minimal inhibiting concentration (Acinetobacter baumannii; [2]): > 8 µg/mL | interpretation of the result (Acinetobacter baumannii; [3]): R | minimal inhibiting concentration (Acinetobacter baumannii; [3]): > 8 µg/mL | interpretation of the result (Acinetobacter baumannii; [4]): R | minimal inhibiting concentration (Acinetobacter baumannii; [4]): > 8 µg/mL | interpretation of the result (Acinetobacter baumannii; [5]): R | minimal inhibiting concentration (Acinetobacter baumannii; [5]): > 8 µg/mL | interpretation of the result (Escherichia coli; Escherichia coli isolate 1): R | minimal inhibiting concentration (Escherichia coli; Escherichia coli isolate 1): > 8 µg/mL | interpretation of the result (Escherichia coli; Escherichia coli isolate 2): R | minimal inhibiting concentration (Escherichia coli; Escherichia coli isolate 2): > 8 µg/mL | interpretation of the result (Escherichia coli; Escherichia coli isolate 3): R | minimal inhibiting concentration (Escherichia coli; Escherichia coli isolate 3): > 8 µg/mL | interpretation of the result (Escherichia coli; Escherichia coli isolate 4): S | minimal inhibiting concentration (Escherichia coli; Escherichia coli isolate 4): ≤ 2 µg/mL | interpretation of the result (Escherichia coli; Escherichia coli isolate 5): S | minimal inhibiting concentration (Escherichia coli; Escherichia coli isolate 5): ≤ 2 µg/mL | interpretation of the result (Klebsiella ssp.; Klebsiella ssp. isolate 1): R | minimal inhibiting concentration (Klebsiella ssp.; Klebsiella ssp. isolate 1): > 8 µg/mL | interpretation of the result (Klebsiella ssp.; Klebsiella ssp. isolate 2): R | minimal inhibiting concentration (Klebsiella ssp.; Klebsiella ssp. isolate 2): > 8 µg/mL | interpretation of the result (Klebsiella ssp.; Klebsiella ssp. isolate 3): I | minimal inhibiting concentration (Klebsiella ssp.; Klebsiella ssp. isolate 3): 8 µg/mL | interpretation of the result (Klebsiella ssp.; Klebsiella ssp. isolate 4): R | minimal inhibiting concentration (Klebsiella ssp.; Klebsiella ssp. isolate 4): > 8 µg/mL | interpretation of the result (Klebsiella ssp.; Klebsiella ssp. isolate 5): R | minimal inhibiting concentration (Klebsiella ssp.; Klebsiella ssp. isolate 5): > 8 µg/mL | interpretation of the result (Pseudomonas aeruginosa; [6]): S | minimal inhibiting concentration (Pseudomonas aeruginosa; [6]): 4 µg/mL | interpretation of the result (Pseudomonas aeruginosa; [7]): S | minimal inhibiting concentration (Pseudomonas aeruginosa; [7]): 4 µg/mL | interpretation of the result (Pseudomonas aeruginosa; [8]): I | minimal inhibiting concentration (Pseudomonas aeruginosa; [8]): 8 µg/mL | interpretation of the result (Pseudomonas aeruginosa; [9]): R | minimal inhibiting concentration (Pseudomonas aeruginosa; [9]): > 8 µg/mL | interpretation of the result (Pseudomonas aeruginosa; [10]): R | minimal inhibiting concentration (Pseudomonas aeruginosa; [10]): > 8 µg/mL

CC1(C)S[C@@H]2[C@H](NC(=O)[C@H](N)c3ccccc3)C(=O)N2[C@H]1C(=O)O [Amp., Ampicillin]
interpretation of the result (Acinetobacter baumannii; [1]): R | interpretation of the result (Acinetobacter baumannii; [2]): R | interpretation of the result (Acinetobacter baumannii; [3]): R | interpretation of the result (Acinetobacter baumannii; [4]): R | interpretation of the result (Acinetobacter baumannii; [5]): R | MIC (Acinetobacter baumannii; [11]): > 16 µg/mL | MIC (Acinetobacter baumannii; [12]): > 16 µg/mL | MIC (Acinetobacter baumannii; [13]): > 16 µg/mL | MIC (Acinetobacter baumannii; [14]): > 16 µg/mL | MIC (Acinetobacter baumannii; [15]): > 16 µg/mL | interpretation of the result (Escherichia coli; Escherichia coli isolate 1): R | interpretation of the result (Escherichia coli; Escherichia coli isolate 2): R | minimal inhibiting concentration (Escherichia coli; Escherichia coli isolate 2): > 16 µg/mL | interpretation of the result (Escherichia coli; Escherichia coli isolate 3): R | minimal inhibiting concentration (Escherichia coli; Escherichia coli isolate 3): > 16 µg/mL | interpretation of the result (Escherichia coli; Escherichia coli isolate 4): R | minimal inhibiting concentration (Escherichia coli; Escherichia coli isolate 4): > 16 µg/mL | interpretation of the result (Escherichia coli; Escherichia coli isolate 5): R | minimal inhibiting concentration (Escherichia coli; Escherichia coli isolate 5): > 16 µg/mL | MIC (Escherichia coli; [16]): > 16 µg/mL | interpretation of the result (Klebsiella ssp.; Klebsiella ssp. isolate 1): R | interpretation of the result (Klebsiella ssp.; Klebsiella ssp. isolate 2): R | minimal inhibiting concentration (Klebsiella ssp.; Klebsiella ssp. isolate 2): > 16 µg/mL | interpretation of the result (Klebsiella ssp.; Klebsiella ssp. isolate 3): R | minimal inhibiting concentration (Klebsiella ssp.; Klebsiella ssp. isolate 3): > 16 µg/mL | interpretation of the result (Klebsiella ssp.; Klebsiella ssp. isolate 4): R | minimal inhibiting concentration (Klebsiella ssp.; Klebsiella ssp. isolate 4): > 16 µg/mL | interpretation of the result (Klebsiella ssp.; Klebsiella ssp. isolate 5): R | minimal inhibiting concentration (Klebsiella ssp.; Klebsiella ssp. isolate 5): > 16 µg/mL | MIC (Klebsiella ssp.; [16]): > 16 µg/mL | interpretation of the result (Pseudomonas aeruginosa; [6]): R | interpretation of the result (Pseudomonas aeruginosa; [7]): R | minimal inhibiting concentration (Pseudomonas aeruginosa; [7]): > 16 µg/mL | interpretation of the result (Pseudomonas aeruginosa; [8]): R | minimal inhibiting concentration (Pseudomonas aeruginosa; [8]): > 16 µg/mL | interpretation of the result (Pseudomonas aeruginosa; [9]): R | minimal inhibiting concentration (Pseudomonas aeruginosa; [9]): > 16 µg/mL | interpretation of the result (Pseudomonas aeruginosa; [10]): R | minimal inhibiting concentration (Pseudomonas aeruginosa; [10]): > 16 µg/mL | MIC (Pseudomonas aeruginosa; [16]): > 16 µg/mL

C[C@H]1COc2c(N3CCN(C)CC3)c(F)cc3c(=O)c(C(=O)O)cn1c23 [Lev., Levofloxacin]
interpretation of the result (Acinetobacter baumannii; [1]): R | interpretation of the result (Acinetobacter baumannii; [2]): R | interpretation of the result (Acinetobacter baumannii; [3]): I | interpretation of the result (Acinetobacter baumannii; [4]): R | interpretation of the result (Acinetobacter baumannii; [5]): R | MIC (Acinetobacter baumannii; [11]): > 4 µg/mL | MIC (Acinetobacter baumannii; [12]): > 4 µg/mL | MIC (Acinetobacter baumannii; [13]): 4 µg/mL (≈ 11.1 µM) | MIC (Acinetobacter baumannii; [14]): > 4 µg/mL | MIC (Acinetobacter baumannii; [15]): > 4 µg/mL | interpretation of the result (Escherichia coli; Escherichia coli isolate 1): R | interpretation of the result (Escherichia coli; Escherichia coli isolate 2): R | interpretation of the result (Escherichia coli; Escherichia coli isolate 3): R | interpretation of the result (Escherichia coli; Escherichia coli isolate 4): R | interpretation of the result (Escherichia coli; Escherichia coli isolate 5): R | MIC (Escherichia coli; read-out: minimal inhibiting concentration, Escherichia coli isolate 1): > 4 µg/mL | MIC (Escherichia coli; read-out: minimal inhibiting concentration, Escherichia coli isolate 2): > 4 µg/mL | MIC (Escherichia coli; read-out: minimal inhibiting concentration, Escherichia coli isolate 3): > 4 µg/mL | MIC (Escherichia coli; read-out: minimal inhibiting concentration, Escherichia coli isolate 4): > 4 µg/mL | MIC (Escherichia coli; read-out: minimal inhibiting concentration, Escherichia coli isolate 5): > 4 µg/mL | interpretation of the result (Klebsiella ssp.; Klebsiella ssp. isolate 1): R | interpretation of the result (Klebsiella ssp.; Klebsiella ssp. isolate 2): S | interpretation of the result (Klebsiella ssp.; Klebsiella ssp. isolate 3): S | interpretation of the result (Klebsiella ssp.; Klebsiella ssp. isolate 4): S | interpretation of the result (Klebsiella ssp.; Klebsiella ssp. isolate 5): S | MIC (Klebsiella ssp.; read-out: minimal inhibiting concentration, Klebsiella ssp. isolate 1): > 4 µg/mL | MIC (Klebsiella ssp.; read-out: minimal inhibiting concentration, Klebsiella ssp. isolate 2): ≤ 1 µg/mL | MIC (Klebsiella ssp.; read-out: minimal inhibiting concentration, Klebsiella ssp. isolate 3): ≤ 1 µg/mL | MIC (Klebsiella ssp.; read-out: minimal inhibiting concentration, Klebsiella ssp. isolate 4): ≤ 1 µg/mL | MIC (Klebsiella ssp.; read-out: minimal inhibiting concentration, Klebsiella ssp. isolate 5): ≤ 1 µg/mL | interpretation of the result (Pseudomonas aeruginosa; [6]): R | interpretation of the result (Pseudomonas aeruginosa; [7]): R | interpretation of the result (Pseudomonas aeruginosa; [8]): R | interpretation of the result (Pseudomonas aeruginosa; [9]): R | interpretation of the result (Pseudomonas aeruginosa; [10]): R | MIC (Pseudomonas aeruginosa; read-out: minimal inhibiting concentration, Pseudomonas aeruginosa isolate 1): > 4 µg/mL | MIC (Pseudomonas aeruginosa; read-out: minimal inhibiting concentration, Pseudomonas aeruginosa isolate 2): > 4 µg/mL | MIC (Pseudomonas aeruginosa; read-out: minimal inhibiting concentration, Pseudomonas aeruginosa isolate 3): > 4 µg/mL | MIC (Pseudomonas aeruginosa; read-out: minimal inhibiting concentration, Pseudomonas aeruginosa isolate 4): > 4 µg/mL | MIC (Pseudomonas aeruginosa; read-out: minimal inhibiting concentration, Pseudomonas aeruginosa isolate 5): > 4 µg/mL
